Test results taken from patent publication US20150231236A1, “METHODS FOR TREATING PATIENTS WITH HYPERCHOLESTEROLEMIA THAT IS NOT ADEQUATELY CONTROLLED BY MODERATE-DOSE STATIN THERAPY” (Regeneron Pharmaceuticals, Inc., priority 2014, published 2015).

Tested on: patients with hypercholesterolemia at high CV risk not adequately controlled with rosuvastatin (10 mg or 20 mg)
Test: Example 3: randomized, double-blind trial, lipid efficacy of mAb316P add-on to rosuvastatin vs EZE add-on or rosuvastatin dose doubling
Assay type: in vivo, human
Description: The present study was a randomized, double-blind, active-comparator, parallel-group study in patients at high CV risk with non-FH or heFH who are not adequately controlled with rosuvastatin (10 mg or 20 mg) with or without other lipid-modifying therapy (LMT) (excluding EZE). The study design is illustrated in FIG. 2. Patients who entered the study were taking either rosuvastatin 10 mg or rosuvastatin 20 mg. The former patients were randomized to 1 of 3 treatment arms (arms 1 to 3); the latter patients were randomized to 1 of 3 treatment arms (arms 4 to 6). The treatment arms are as follows:
(B) a double-blind treatment period of 24 weeks. […] The patient/caregiver administered subsequent injections outside of the clinic according to the dosing schedule. […] The last dose of daily oral study drugs was administered at week 24.
The first injection of study drug was administered at the clinical site, as soon as possible after the patient was randomized into the study. The patient was monitored at the clinical site for at least 30 minutes following the first injection. The patient/caregiver administered subsequent injections outside of the clinic, according to the dosing schedule.
The primary efficacy endpoint was the percent change in calculated LDL-C from baseline to week 24, which is defined as: 100× (calculated LDL-C value at week 24−calculated LDL-C value at baseline)/calculated LDL-C value at baseline. The baseline calculated LDL-C value was the last LDL-C level obtained before the first double-blind study drug injection. The calculated LDL-C at week 24 was the LDL-C level obtained within the week 24 analysis window and during the main efficacy period. The main efficacy period is defined as the time from the first double-blind study drug injection up to 21 days after the last double-blind study drug injection or up to the upper limit of the week 24 analysis window, whichever comes first.
Total-C, HDL-C, TG, ApoB, ApoA-1, and Lp(a) were directly measured by a central laboratory. LDL-C was calculated using the Friedewald formula. […] Non-HDL-C was calculated by subtracting HDL-C from the total-C. Ratio ApoB/ApoA-1 was calculated.
For clarification, the ITT analysis is defined for patients in the ITT population and includes all endpoint assessments in an analysis window, regardless of study treatment dosing status (i.e. includes post-treatment assessments). The on-treatment analysis is defined for patients in the mITT population and includes all endpoint assessments from the first double-blind study drug (capsule or injection, whichever comes first) up to 21 days after the last double-blind study drug injection or 3 days after the last capsule intake, whichever comes first (i.e. includes assessments in the efficacy treatment period).

[1] = ITT Population, Comparison 2: mAb316P + rosuvastatin 10 mg arm vs. EZE + rosuvastatin 10 mg arm
[2] = ITT Population, Comparison 3: mAb316P + rosuvastatin 20 mg arm vs. rosuvastatin 40 mg arm
[3] = ITT Population, Comparison 4: mAb316P + rosuvastatin 20 mg arm vs. EZE + rosuvastatin 20 mg arm
[4] = mITT Population, Comparison 1: mAb316P + rosuvastatin 10 mg arm vs. rosuvastatin 20 mg arm
[5] = mITT Population, Comparison 2: mAb316P + rosuvastatin 10 mg arm vs. EZE + rosuvastatin 10 mg arm
[6] = mITT Population, Comparison 3: mAb316P + rosuvastatin 20 mg arm vs. rosuvastatin 40 mg arm
[7] = mITT Population, Comparison 4: mAb316P + rosuvastatin 20 mg arm vs. EZE + rosuvastatin 20 mg arm

## mAb316P: human anti-PCSK9 antibody; heavy chain SEQ ID NO:5, light chain SEQ ID NO:9
[1]
  LS Mean Difference, percent change from baseline of calculated LDL-C to week 24: −36.1%
  LS Mean Difference, percent change from baseline of non-HDL-C to week 24: −29.3%
  Odds Ratio, proportion of patients reaching calculated LDL-C < 70 mg/dL (1.81 mmol/L) at Week 24: 11.6
  Odds Ratio, proportion of very high CV risk patients reaching calculated LDL-C < 70 mg/dL or high CV risk patients reaching calculated LDL-C < 100 mg/dL at Week 24: 7.8
[2]
  LS Mean Difference, percent change from baseline of Apo B to week 24: −18.5%
  LS Mean Difference, percent change from baseline of Apo-B to week 12: −15.3%
  LS Mean Difference, percent change from baseline of HDL-C at week 24: 5.7%
  LS Mean Difference, percent change from baseline of Lp(a) to week 24: −17.5%
  LS Mean Difference, percent change from baseline of Non-HDL-C to week 12: −11.8%
  LS Mean Difference, percent change from baseline of Total-C to week 12: −5.5%
  LS Mean Difference, percent change from baseline of Total-C to week 24: −12.1%
  LS Mean Difference, percent change from baseline of calculated LDL-C to week 12: −10.2%
  LS Mean Difference, percent change from baseline of calculated LDL-C to week 24: −20.3%
  LS Mean Difference, percent change from baseline of non-HDL-C to week 24: −20.1%
  Odds Ratio, proportion of patients reaching calculated LDL-C < 70 mg/dL (1.81 mmol/L) at Week 24: 6.1
  Odds Ratio, proportion of very high CV risk patients reaching calculated LDL-C < 70 mg/dL or high CV risk patients reaching calculated LDL-C < 100 mg/dL at Week 24: 4.7
[3]
  LS Mean Difference, percent change from baseline of Apo B to week 24: −17.1%
  LS Mean Difference, percent change from baseline of Apo-B to week 12: −14.7%
  LS Mean Difference, percent change from baseline of HDL-C at week 24: 9.0%
  LS Mean Difference, percent change from baseline of Lp(a) to week 24: −16.9%
  LS Mean Difference, percent change from baseline of Non-HDL-C to week 12: −11.0%
  LS Mean Difference, percent change from baseline of Total-C to week 12: −5.5%
  LS Mean Difference, percent change from baseline of Total-C to week 24: −8.2%
  LS Mean Difference, percent change from baseline of calculated LDL-C to week 12: −12.9%
  LS Mean Difference, percent change from baseline of calculated LDL-C to week 24: −25.3%
  LS Mean Difference, percent change from baseline of non-HDL-C to week 24: −18.4%
  Odds Ratio, proportion of patients reaching calculated LDL-C < 70 mg/dL (1.81 mmol/L) at Week 24: 2.5
  Odds Ratio, proportion of very high CV risk patients reaching calculated LDL-C < 70 mg/dL or high CV risk patients reaching calculated LDL-C < 100 mg/dL at Week 24: 2.3
Baseline rosuvastatin 10 mg regimen
  proportion of patients who reached LDL-C level of <70 mg/dL (1.81 mmol/L) at Week 24: 77.8%
Baseline rosuvastatin 20 mg regimen
  proportion of patients who reached LDL-C level of <70 mg/dL (1.81 mmol/L) at Week 24: 60.1%
[4]
  LS Mean Difference, percent change from baseline of Apo B to week 24: −30.7%
  LS Mean Difference, percent change from baseline of calculated LDL-C to week 12: −35.3%
  LS Mean Difference, percent change from baseline of calculated LDL-C to week 24: −35.2%
  LS Mean Difference, percent change from baseline of non-HDL-C to week 24: −32.8%
  Odds Ratio, proportion of patients reaching calculated LDL-C < 70 mg/dL (1.81 mmol/L) at Week 24: 20.3
  Odds Ratio, proportion of very high CV risk patients reaching calculated LDL-C < 70 mg/dL or high CV risk patients reaching calculated LDL-C < 100 mg/dL at Week 24: 12.4
[5]
  LS Mean Difference, percent change from baseline of Apo B to week 24: −28.3%
  LS Mean Difference, percent change from baseline of calculated LDL-C to week 12: −32.3%
  LS Mean Difference, percent change from baseline of calculated LDL-C to week 24: −33.2%
  LS Mean Difference, percent change from baseline of non-HDL-C to week 24: −28.2%
  Odds Ratio, proportion of patients reaching calculated LDL-C < 70 mg/dL (1.81 mmol/L) at Week 24: 12.7
  Odds Ratio, proportion of very high CV risk patients reaching calculated LDL-C < 70 mg/dL or high CV risk patients reaching calculated LDL-C < 100 mg/dL at Week 24: 8.9
[6]
  LS Mean Difference, percent change from baseline of Apo B to week 24: −17.7%
  LS Mean Difference, percent change from baseline of calculated LDL-C to week 12: −12.3%
  LS Mean Difference, percent change from baseline of calculated LDL-C to week 24: −24.5%
  LS Mean Difference, percent change from baseline of non-HDL-C to week 24: −20.7%
  Odds Ratio, proportion of patients reaching calculated LDL-C < 70 mg/dL (1.81 mmol/L) at Week 24: 9.0
  Odds Ratio, proportion of very high CV risk patients reaching calculated LDL-C < 70 mg/dL or high CV risk patients reaching calculated LDL-C < 100 mg/dL at Week 24: 5.9
[7]
  LS Mean Difference, percent change from baseline of Apo B to week 24: −17.8%
  LS Mean Difference, percent change from baseline of calculated LDL-C to week 12: −13.3%
  LS Mean Difference, percent change from baseline of calculated LDL-C to week 24: −24.9%
  LS Mean Difference, percent change from baseline of non-HDL-C to week 24: −17.4%
  Odds Ratio, proportion of patients reaching calculated LDL-C < 70 mg/dL (1.81 mmol/L) at Week 24: 3.4
  Odds Ratio, proportion of very high CV risk patients reaching calculated LDL-C < 70 mg/dL or high CV risk patients reaching calculated LDL-C < 100 mg/dL at Week 24: 2.7
